Test system: subjects with AK on the face or scalp
Assay: Phase 2a study KX01-AK-002: local skin reactions (grade 0 not present to 4 worst) and adverse events, 0.5 mg KX-01 on 25 cm^2
Assay type: in vivo, human
Source text: An ongoing Phase 2a, open-label, multicenter, activity and safety study of KX-01 administered topically in subjects with AK on the face or scalp is described herein. […] Secondary objectives are to assess the activity of KX-01 administered topically during Days 1-57 based on reduction of AK lesion counts from baseline, assess the safety and tolerability and pharmacokinetics, and contrast the dose regimens (5-day treatment with 3-day treatment) in terms of activity and safety in subjects with AK on the face or scalp. This uncontrolled, nonrandomized trial is being conducted at 16 investigational sites in the United States. Enrollment is sequential for 2 cohorts of approximately 80 subjects each. Enrollment is closed for Cohort 1 and ongoing for Cohort 2. The two treatment cohorts are summarized below: • Cohort 1: 0.5 mg KX-01 administered topically to a contiguous treatment area of 25 cm^2 with 4-8 clinically typical AK lesions for 5 consecutive days • Cohort 2: 0.5 mg KX-01 administered topically to a contiguous treatment area of 25 cm^2 with 4-8 clinically typical AK lesions for 3 consecutive days
0.5 mg KX-01 is administered topically to an area of 25 cm^2 on the face or scalp by site staff on treatment days. […] AK lesion counts are recorded at baseline, days 8, 15, 29, and 57. […] Standardized photography of treatment area is performed at baseline, day 8 and day 57. Plasma samples are being collected at preplanned time points on days 1 and 5 for Cohort 1, and on days 1 and 3 for Cohort 2.
Absence or presence of hyperpigmentation, hypopigmentation and scarring are also assessed. Application site reactions not classified as LSRs are reported as AEs. […] LSRs and AEs are reported separately. All LSRs, pigmentation, and scarring in the treatment area will be followed to resolution or stabilization.
The range of possible composite scores is 0-24.
The Phase 2a trial described in Example 2a was completed with 84 eligible subjects enrolled in each of two cohorts: one cohort was subjected to the treatment for 5 consecutive days, and the other cohort was subjected to the treatment for 3 consecutive days. The results are described below and in FIG. 5.

With `O=C(Cc1ccc(-c2ccc(OCCN3CCOCC3)cc2)cn1)NCc1ccccc1` [KX-01] as the compound, how does the “Vesiculation/Pustulation grade 0, n/N subjects” value (Day 3, Cohort 1 (5-day)) read?
The value was 67/67.

What about the “Vesiculation/Pustulation grade 1, n/N subjects” value (Day 3, Cohort 1 (5-day)) of the same compound?
The value was 0.

What about the “Vesiculation/Pustulation grade 2, n/N subjects” value (Day 3, Cohort 1 (5-day)) of the same compound?
Its value is 0.

And the “Vesiculation/Pustulation grade 3, n/N subjects” value (Day 3, Cohort 1 (5-day))?
Its value is 0.

What about the “Vesiculation/Pustulation grade 4, n/N subjects” value (Day 3, Cohort 1 (5-day)) of the same compound?
Its value is 0.

What about the “Crusting grade 0, n/N subjects” value (Day 4, Cohort 1 (5-day)) of the same compound?
Its value is 61/67.

And the “Crusting grade 1, n/N subjects” value (Day 4, Cohort 1 (5-day))?
The value was 4/67.

What about the “Crusting grade 2, n/N subjects” value (Day 4, Cohort 1 (5-day)) of the same compound?
Its value is 2/67.

What about the “Crusting grade 3, n/N subjects” value (Day 4, Cohort 1 (5-day)) of the same compound?
Its value is 0.

And the “Crusting grade 4, n/N subjects” value (Day 4, Cohort 1 (5-day))?
The value was 0.

And the “Erosion/Ulceration grade 0, n/N subjects” value (Day 4, Cohort 1 (5-day))?
The value was 65/67.

What about the “Erosion/Ulceration grade 1, n/N subjects” value (Day 4, Cohort 1 (5-day)) of the same compound?
The value was 2/67.

And the “Erosion/Ulceration grade 2, n/N subjects” value (Day 4, Cohort 1 (5-day))?
The value was 0.

And the “Erosion/Ulceration grade 3, n/N subjects” value (Day 4, Cohort 1 (5-day))?
Its value is 0.

And the “Erosion/Ulceration grade 4, n/N subjects” value (Day 4, Cohort 1 (5-day))?
The value was 0.

What about the “Erythema grade 0, n/N subjects” value (Day 4, Cohort 1 (5-day)) of the same compound?
The value was 19/67.

And the “Erythema grade 1, n/N subjects” value (Day 4, Cohort 1 (5-day))?
The value was 26/67.

What about the “Erythema grade 2, n/N subjects” value (Day 4, Cohort 1 (5-day)) of the same compound?
Its value is 17/67.

What about the “Erythema grade 3, n/N subjects” value (Day 4, Cohort 1 (5-day)) of the same compound?
The value was 5/67.

And the “Erythema grade 4, n/N subjects” value (Day 4, Cohort 1 (5-day))?
Its value is 0.

And the “Flaking/Scaling grade 0, n/N subjects” value (Day 4, Cohort 1 (5-day))?
The value was 43/67.

What about the “Flaking/Scaling grade 1, n/N subjects” value (Day 4, Cohort 1 (5-day)) of the same compound?
The value was 16/67.

And the “Flaking/Scaling grade 2, n/N subjects” value (Day 4, Cohort 1 (5-day))?
Its value is 5/67.

What about the “Flaking/Scaling grade 3, n/N subjects” value (Day 4, Cohort 1 (5-day)) of the same compound?
The value was 3/67.

What about the “Flaking/Scaling grade 4, n/N subjects” value (Day 4, Cohort 1 (5-day)) of the same compound?
Its value is 0.

And the “Swelling grade 0, n/N subjects” value (Day 4, Cohort 1 (5-day))?
Its value is 65/67.

And the “Swelling grade 1, n/N subjects” value (Day 4, Cohort 1 (5-day))?
The value was 2/67.

And the “Swelling grade 2, n/N subjects” value (Day 4, Cohort 1 (5-day))?
The value was 0.

What about the “Swelling grade 3, n/N subjects” value (Day 4, Cohort 1 (5-day)) of the same compound?
The value was 0.

What about the “Swelling grade 4, n/N subjects” value (Day 4, Cohort 1 (5-day)) of the same compound?
Its value is 0.

What about the “Vesiculation/Pustulation grade 0, n/N subjects” value (Day 4, Cohort 1 (5-day)) of the same compound?
The value was 66/67.

And the “Vesiculation/Pustulation grade 1, n/N subjects” value (Day 4, Cohort 1 (5-day))?
Its value is 1/67.

And the “Vesiculation/Pustulation grade 2, n/N subjects” value (Day 4, Cohort 1 (5-day))?
The value was 0.

What about the “Vesiculation/Pustulation grade 3, n/N subjects” value (Day 4, Cohort 1 (5-day)) of the same compound?
Its value is 0.

What about the “Vesiculation/Pustulation grade 4, n/N subjects” value (Day 4, Cohort 1 (5-day)) of the same compound?
The value was 0.

And the “Crusting grade 0, n/N subjects” value (Day 5, Cohort 1 (5-day))?
The value was 56/67.

What about the “Crusting grade 1, n/N subjects” value (Day 5, Cohort 1 (5-day)) of the same compound?
The value was 9/67.

And the “Crusting grade 2, n/N subjects” value (Day 5, Cohort 1 (5-day))?
The value was 2/67.

And the “Crusting grade 3, n/N subjects” value (Day 5, Cohort 1 (5-day))?
Its value is 0.

And the “Crusting grade 4, n/N subjects” value (Day 5, Cohort 1 (5-day))?
Its value is 0.

What about the “Erosion/Ulceration grade 0, n/N subjects” value (Day 5, Cohort 1 (5-day)) of the same compound?
Its value is 61/67.

What about the “Erosion/Ulceration grade 1, n/N subjects” value (Day 5, Cohort 1 (5-day)) of the same compound?
Its value is 6/67.

What about the “Erosion/Ulceration grade 2, n/N subjects” value (Day 5, Cohort 1 (5-day)) of the same compound?
The value was 0.

And the “Erosion/Ulceration grade 3, n/N subjects” value (Day 5, Cohort 1 (5-day))?
The value was 0.

And the “Erosion/Ulceration grade 4, n/N subjects” value (Day 5, Cohort 1 (5-day))?
The value was 0.

What about the “Erythema grade 0, n/N subjects” value (Day 5, Cohort 1 (5-day)) of the same compound?
The value was 12/67.

And the “Erythema grade 1, n/N subjects” value (Day 5, Cohort 1 (5-day))?
The value was 19/67.

What about the “Erythema grade 2, n/N subjects” value (Day 5, Cohort 1 (5-day)) of the same compound?
Its value is 27/67.

And the “Erythema grade 3, n/N subjects” value (Day 5, Cohort 1 (5-day))?
Its value is 9/67.

And the “Erythema grade 4, n/N subjects” value (Day 5, Cohort 1 (5-day))?
Its value is 0.

What about the “Flaking/Scaling grade 0, n/N subjects” value (Day 5, Cohort 1 (5-day)) of the same compound?
Its value is 35/67.

What about the “Flaking/Scaling grade 1, n/N subjects” value (Day 5, Cohort 1 (5-day)) of the same compound?
The value was 21/67.

And the “Flaking/Scaling grade 2, n/N subjects” value (Day 5, Cohort 1 (5-day))?
The value was 9/67.

And the “Flaking/Scaling grade 3, n/N subjects” value (Day 5, Cohort 1 (5-day))?
Its value is 2/67.

And the “Flaking/Scaling grade 4, n/N subjects” value (Day 5, Cohort 1 (5-day))?
The value was 0.

And the “Swelling grade 0, n/N subjects” value (Day 5, Cohort 1 (5-day))?
The value was 58/67.

And the “Swelling grade 1, n/N subjects” value (Day 5, Cohort 1 (5-day))?
The value was 7/67.

What about the “Swelling grade 2, n/N subjects” value (Day 5, Cohort 1 (5-day)) of the same compound?
Its value is 1/67.

And the “Swelling grade 3, n/N subjects” value (Day 5, Cohort 1 (5-day))?
Its value is 1/67.

What about the “Swelling grade 4, n/N subjects” value (Day 5, Cohort 1 (5-day)) of the same compound?
The value was 0.

What about the “Vesiculation/Pustulation grade 0, n/N subjects” value (Day 5, Cohort 1 (5-day)) of the same compound?
The value was 65/67.

What about the “Vesiculation/Pustulation grade 1, n/N subjects” value (Day 5, Cohort 1 (5-day)) of the same compound?
The value was 2/67.

What about the “Vesiculation/Pustulation grade 2, n/N subjects” value (Day 5, Cohort 1 (5-day)) of the same compound?
The value was 0.

What about the “Vesiculation/Pustulation grade 3, n/N subjects” value (Day 5, Cohort 1 (5-day)) of the same compound?
The value was 0.

And the “Vesiculation/Pustulation grade 4, n/N subjects” value (Day 5, Cohort 1 (5-day))?
The value was 0.

And the “Crusting grade 0, n/N subjects” value (Day 8, Cohort 1 (5-day))?
The value was 51/67.

And the “Crusting grade 1, n/N subjects” value (Day 8, Cohort 1 (5-day))?
The value was 15/67.

And the “Crusting grade 2, n/N subjects” value (Day 8, Cohort 1 (5-day))?
Its value is 1/67.

What about the “Crusting grade 3, n/N subjects” value (Day 8, Cohort 1 (5-day)) of the same compound?
Its value is 0.

What about the “Crusting grade 4, n/N subjects” value (Day 8, Cohort 1 (5-day)) of the same compound?
Its value is 0.

What about the “Erosion/Ulceration grade 0, n/N subjects” value (Day 8, Cohort 1 (5-day)) of the same compound?
The value was 65/67.

What about the “Erosion/Ulceration grade 1, n/N subjects” value (Day 8, Cohort 1 (5-day)) of the same compound?
The value was 1/67.

What about the “Erosion/Ulceration grade 2, n/N subjects” value (Day 8, Cohort 1 (5-day)) of the same compound?
Its value is 1/67.

And the “Erosion/Ulceration grade 3, n/N subjects” value (Day 8, Cohort 1 (5-day))?
The value was 0.

And the “Erosion/Ulceration grade 4, n/N subjects” value (Day 8, Cohort 1 (5-day))?
The value was 0.

What about the “Erythema grade 0, n/N subjects” value (Day 8, Cohort 1 (5-day)) of the same compound?
The value was 14/67.

What about the “Erythema grade 1, n/N subjects” value (Day 8, Cohort 1 (5-day)) of the same compound?
Its value is 24/67.

What about the “Erythema grade 2, n/N subjects” value (Day 8, Cohort 1 (5-day)) of the same compound?
The value was 25/67.

What about the “Erythema grade 3, n/N subjects” value (Day 8, Cohort 1 (5-day)) of the same compound?
Its value is 4/67.

What about the “Erythema grade 4, n/N subjects” value (Day 8, Cohort 1 (5-day)) of the same compound?
The value was 0.

And the “Flaking/Scaling grade 0, n/N subjects” value (Day 8, Cohort 1 (5-day))?
The value was 26/67.

What about the “Flaking/Scaling grade 1, n/N subjects” value (Day 8, Cohort 1 (5-day)) of the same compound?
Its value is 18/67.

What about the “Flaking/Scaling grade 2, n/N subjects” value (Day 8, Cohort 1 (5-day)) of the same compound?
The value was 15/67.

And the “Flaking/Scaling grade 3, n/N subjects” value (Day 8, Cohort 1 (5-day))?
The value was 8/67.

What about the “Flaking/Scaling grade 4, n/N subjects” value (Day 8, Cohort 1 (5-day)) of the same compound?
The value was 0.

And the “Swelling grade 0, n/N subjects” value (Day 8, Cohort 1 (5-day))?
The value was 64/67.

What about the “Swelling grade 1, n/N subjects” value (Day 8, Cohort 1 (5-day)) of the same compound?
The value was 3/67.

What about the “Swelling grade 2, n/N subjects” value (Day 8, Cohort 1 (5-day)) of the same compound?
The value was 0.

What about the “Swelling grade 3, n/N subjects” value (Day 8, Cohort 1 (5-day)) of the same compound?
The value was 0.

What about the “Swelling grade 4, n/N subjects” value (Day 8, Cohort 1 (5-day)) of the same compound?
The value was 0.

And the “Vesiculation/Pustulation grade 0, n/N subjects” value (Day 8, Cohort 1 (5-day))?
The value was 67/67.

And the “Vesiculation/Pustulation grade 1, n/N subjects” value (Day 8, Cohort 1 (5-day))?
The value was 0.

What about the “Vesiculation/Pustulation grade 2, n/N subjects” value (Day 8, Cohort 1 (5-day)) of the same compound?
The value was 0.
